This is an account of results in patent US11000033B2, “Ketone or oxime compound, and herbicide” (NISSAN CHEMICAL CORPORATION, priority 2014, dated 2021).

Assay type in all cases: in vivo
In one data set the test system is Lolium multiflorum Lam. The experiment in a line: Test Example 5: herbicidal effect by foliage application, plastic box (symbol K). As to conditions: 320 g/ha, 3 weeks after application. The procedure, abridged: (§1)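 Effect is rated 3 weeks after a foliar spray of water-diluted emulsion concentrate at a predetermined herbicide amount. Plants had grown 14 days in a 25° C. to 30° C. greenhouse from seed in sterilized diluvial soil.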

The subject of a further data set is Scirpus juncoides. The data set can be described thus: Test Example 2: herbicidal activity, application during weed generation in submerged conditions (symbol B). The note with it: Table 23; application herbicide amount 320 g/ha; grade 0-5 by criteria of Test Example 1. The procedure, abridged:
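Treatment timing was the one- to two-leaf stage, with diluted emulsifiable compound dropped onto the paddy water (depth 4 cm) over alluvial soil. All three species grew from a mixed sowing in a 25° C. to 30° C. greenhouse. Injury was judged by eye 3 weeks on.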

A further data set concerns beet. The experiment in a line: Test Example 4: effect on crop by soil treatment (symbol f). As to conditions: application herbicide amount 320 g/ha. In short, it runs like this:
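Seeds were sown in spots on sterilized diluvial soil in a plastic box and covered with about 1.5 cm of soil. Plants were then grown in a greenhouse at 25° C. to 30° C.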

The test system of a further data set is Monochoria vaginalis. The experiment in a line: Test Example 1: herbicidal activity, application before weed generation in submerged conditions (symbol C). As to conditions: application herbicide amount 320 g/ha. The procedure, abridged: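 Scores run 0 to 5 by herbicidal ratio, with 5 meaning 90% or more and 0 meaning 5% or lower, read 3 weeks after treatment. Compound was applied as a diluted emulsion to the water surface of submerged alluvial-soil pots on the day weed seeds were sown.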

The test system of data set [1] is directly sowed rice plant. The experiment in a line: Test Example 3: effect on crop by foliage application, Wagner pot (symbol b). As to conditions: application herbicide amount 320 g/ha. In short, it runs like this: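 Plants are raised from seed in flooded paddy conditions: water stands 0.1–0.5 cm over alluvial soil, and the pot is kept in a greenhouse at 25–30 °C. Species sown are barnyardgrass (E. crus-galli var. crus-galli), Leptochloa chinensis, Cyperus difformis and rice.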

In the next data set the test system is soybean. The experiment in a line: Test Example 5: effect on crop by foliage application, plastic box (symbol d). As to conditions: 320 g/ha, 3 weeks after application. The procedure, abridged:
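Plants were raised from seed in a greenhouse (25° C. to 30° C.) after sowing in a plastic box of sterilized diluvial soil.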

The next data set has as its system Abutilon theophrasti. The data set can be described thus: Test Example 4: herbicidal effect by soil treatment (symbol M). As to conditions: application herbicide amount 320 g/ha. The procedure, abridged: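 Seeds were sown in sterilized diluvial soil, covered with about 1.5 cm of soil, and the soil surface was sprayed with a water-diluted emulsion of the compound at a predetermined rate. Plants grew in a greenhouse at 25° C. to 30° C.; effects were scored visually 3 weeks after application.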

Data set [2] has as its system Echinochloa crus-galli var. crus-galli. The experiment in a line: Test Example 5: herbicidal effect by foliage application, plastic box (symbol H). The note with it: 320 g/ha, 3 weeks after application. In short, it runs like this:
as §1

In the case of `CON=C(C)CC1CC(OC(=O)C(C)(C)Oc2ccccc2)=C(c2c(C)cc(C)cc2C)C1=O` (stereo not shown) [1-017], the “K: Lolium multiflorum Lam., herbicidal effect grade” value in the data set with Lolium multiflorum Lam. is listed as 5 (Herbicidal ratio of 90% or more (almost completely withered)). In the data set with Scirpus juncoides, the “Herbicidal effect grade, B: Scirpus juncoides” value (shortened to “Herbicidal effect grade, B”) is 4 (Herbicidal ratio of 70% or higher and lower than 90%). The “f (beet) effect on crop grade” value in the data set on beet is on record as 0 (Herbicidal ratio of 5% or lower (almost no effect)). Also, in the data set with Monochoria vaginalis, the “Herbicidal effect grade, C: Monochoria vaginalis” value (from here on “Herbicidal effect grade, C”) was 2 (Herbicidal ratio of 20% or higher and lower than 40%). Further, the “effect on crop b (directly sowed rice plant), grade 0-5” value (“effect on crop b” below) in data set [1] was 5 (Herbicidal ratio of 90% or more (almost completely withered)). In addition, the “d: soybean, effect on crop grade” value with soybean is 4 (Herbicidal ratio of 70% or higher and lower than 90%). Moreover, in the data set with Abutilon theophrasti, the “M (Abutilon theophrasti) herbicidal effect grade” value is on record as 5 (Herbicidal ratio of 90% or more (almost completely withered)). Further, the “H: Echinochloa crus-galli var. crus-galli, herbicidal effect grade” value in data set [2] is given as 5 (Herbicidal ratio of 90% or more (almost completely withered)).
As to `CCc1cc(Br)cc(C)c1C1=C(O)CC(C(C(C)=O)C(=O)OC)C1=O` (stereo not shown) [7-001], the “K: Lolium multiflorum Lam., herbicidal effect (criteria of Test Example 1)” value in the data set with Lolium multiflorum Lam. was 5 (Herbicidal ratio of 90% or more (almost completely withered)). For the same compound, the “Herbicidal effect grade, B” value in the data set on Scirpus juncoides is on record as 0 (Herbicidal ratio of 5% or lower (almost no effect)). In the data set with beet, the “Effect on crop grade, f: beet” value is on record as 0 (Herbicidal ratio of 5% or lower (almost no effect)). For the same compound, the “Herbicidal effect grade, C” value in the data set with Monochoria vaginalis is given as 0 (Herbicidal ratio of 5% or lower (almost no effect)). In addition, the “effect on crop b” value in data set [1] is 2 (Herbicidal ratio of 20% or higher and lower than 40%). For the same compound, the “d: soybean, effect on crop (criteria of Test Example 1)” value in the data set on soybean is 0 (Herbicidal ratio of 5% or lower (almost no effect)). In the data set on Abutilon theophrasti, the “Herbicidal effect grade, M: Abutilon theophrasti” value is listed as 0 (Herbicidal ratio of 5% or lower (almost no effect)). Besides, the “H: Echinochloa crus-galli var. crus-galli, herbicidal effect (criteria of Test Example 1)” value in data set [2] was 4 (Herbicidal ratio of 70% or higher and lower than 90%).
As for `CC(CC1CC(O)=C(c2c(C)cc(C)cc2C)C1=O)=NOCc1ccccn1` (stereo not shown) [1-022], in the data set with Lolium multiflorum Lam., the “K: Lolium multiflorum Lam., herbicidal effect grade” value is 5 (Herbicidal ratio of 90% or more (almost completely withered)). The “Herbicidal effect grade, B” value in the data set on Scirpus juncoides is 5 (Herbicidal ratio of 90% or more (almost completely withered)). Also, in the data set on beet, the “f (beet) effect on crop grade” value is 3 (Herbicidal ratio of 40% or higher and lower than 70%). Moreover, the “Herbicidal effect grade, C” value in the data set with Monochoria vaginalis is 2 (Herbicidal ratio of 20% or higher and lower than 40%). Moreover, in data set [1], the “effect on crop b” value is 5 (Herbicidal ratio of 90% or more (almost completely withered)). In addition, the “d: soybean, effect on crop grade” value with soybean is 3 (Herbicidal ratio of 40% or higher and lower than 70%). The “M (Abutilon theophrasti) herbicidal effect grade” value in the data set with Abutilon theophrasti was 0 (Herbicidal ratio of 5% or lower (almost no effect)). In addition, the “H: Echinochloa crus-galli var. crus-galli, herbicidal effect grade” value in data set [2] is 5 (Herbicidal ratio of 90% or more (almost completely withered)).
Take `CON=C(C)CC1CC(OC(=O)C2CC2)=C(c2c(C)cc(C)cc2C)C1=O` (stereo not shown) [1-015]: the “K: Lolium multiflorum Lam., herbicidal effect grade” value in the data set with Lolium multiflorum Lam. is reported as 5 (Herbicidal ratio of 90% or more (almost completely withered)). Also, the “Herbicidal effect grade, B” value in the data set on Scirpus juncoides was 4 (Herbicidal ratio of 70% or higher and lower than 90%). Also, the “Herbicidal effect grade, C” value with Monochoria vaginalis was 2 (Herbicidal ratio of 20% or higher and lower than 40%). For the same compound, the “effect on crop b” value in data set [1] is 5 (Herbicidal ratio of 90% or more (almost completely withered)). Moreover, in the data set on soybean, the “d: soybean, effect on crop grade” value was 5 (Herbicidal ratio of 90% or more (almost completely withered)). Also, in the data set with Abutilon theophrasti, the “M (Abutilon theophrasti) herbicidal effect grade” value is on record as 5 (Herbicidal ratio of 90% or more (almost completely withered)). Besides, in data set [2], the “H: Echinochloa crus-galli var. crus-galli, herbicidal effect grade” value was 5 (Herbicidal ratio of 90% or more (almost completely withered)).
